# Experimental data as given in ChEMBL document CHEMBL5335773, “Synthesis and structure-activity relationship of new nicotinamide phosphoribosyltransferase inhibitors with antitumor activity on solid and haematological cancer” (Eur J Med Chem, 2023).
# Key:
# [1] = tested on: MIA PaCa-2; assay: cells; conditions: Homo sapiens, MIA PaCa-2, 72 h
# [2] = target: Nicotinamide phosphoribosyltransferase (Homo sapiens, UniProt P43490); assay: Inhibition of full-length recombinant human NAMPT (2 to 491 residues) expressed in Escherichia coli using NAM as substrate preincubated for 5 mins followed by substrate addition measured after 15 mins by fluorescence based assay
# Chain of Nicotinamide phosphoribosyltransferase (P43490 whole entry, the tested form may be a part): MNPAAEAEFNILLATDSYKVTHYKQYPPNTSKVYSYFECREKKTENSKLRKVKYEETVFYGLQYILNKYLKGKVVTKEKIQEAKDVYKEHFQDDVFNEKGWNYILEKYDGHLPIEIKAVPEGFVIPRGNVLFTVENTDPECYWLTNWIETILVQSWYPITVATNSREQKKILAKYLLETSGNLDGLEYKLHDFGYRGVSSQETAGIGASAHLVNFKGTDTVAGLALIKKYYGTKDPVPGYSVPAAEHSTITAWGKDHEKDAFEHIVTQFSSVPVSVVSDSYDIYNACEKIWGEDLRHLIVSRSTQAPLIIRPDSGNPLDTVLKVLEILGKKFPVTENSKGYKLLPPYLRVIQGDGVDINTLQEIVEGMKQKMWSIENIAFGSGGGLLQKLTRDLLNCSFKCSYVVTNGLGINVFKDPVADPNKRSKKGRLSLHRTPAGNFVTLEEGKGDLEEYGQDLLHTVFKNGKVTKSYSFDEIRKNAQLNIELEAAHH
# [3] = tested on: RPMI-8226; assay: Cytotoxicity against human RPMI-8226 cells assessed as inhibition of cell viability at 72 hrs by SRB assay; format: functional, cell-based; conditions: RPMI-8226, 72 h
# [4] = tested on: NAMALVA; assay: Cytotoxicity against human NAMALVA cells assessed as inhibition of cell viability at 72 hrs by SRB assay; format: functional, cell-based
# [5] = tested on: ML-2; assay: Cytotoxicity against human ML-2 cells assessed as inhibition of cell viability at 72 hrs by SRB assay; format: functional, cell-based; conditions: ML-2, 72 h
# [6] = tested on: MIA PaCa-2; assay: cells; conditions: Homo sapiens, MIA PaCa-2, 24 h
# [7] = tested on: Jurkat; assay: Cytotoxicity against human Jurkat cells assessed as inhibition of cell viability at 72 hrs by SRB assay; format: functional, cell-based
# [8] = tested on: NB-4; assay: Cytotoxicity against human NB4 cells assessed as inhibition of cell viability at 72 hrs by SRB assay; format: functional, cell-based; conditions: NB-4, 72 h
Compound,IC50 [1] [nM],IC50 [6] [nM],other results
O=C(CCCCCCNC(=S)Nc1cccnc1)N(Cc1ccco1)C1CCCC1,153,–,–
O=S(=O)(CCCCCCNC(=S)Nc1cccnc1)N(Cc1ccco1)C1CCCC1,16.4,0.43,IC50 [2]: 69.1 nM; IC50 [3]: 20.1 nM; IC50 [4]: 4.23 nM; IC50 [5]: 3.1 nM
O=C(CCCCCCCn1cc(-c2cccnc2)nn1)n1cccc1,494,–,–
COc1ccc2[nH]c(C(=O)N3CCC(CCCCn4cc(-c5cccnc5)nn4)CC3)cc2c1,860,–,–
O=C(Nc1ccc(C(=O)N(Cc2ccco2)C2CCCC2)cc1)N1Cc2ccccc2C1,> 1000,–,–
N#C/N=C(\NCCCCCCCCNC(=O)c1cc2ccccc2[nH]1)Nc1cccnc1,81,–,–
N#C/N=C(\NCCCCCCC(=O)N(Cc1ccc(Cl)cc1)Cc1ccco1)N1Cc2ccccc2C1,> 1000,–,–
O=C(NCCCCCCCCNC(=S)Nc1cccnc1)c1cc2ccccc2[nH]1,605,–,–
N#C/N=C(\NCCCCCCS(=O)(=O)N(Cc1ccco1)C1CCCC1)Nc1ccccc1,176,4.7,–
O=C(NCc1ccco1)c1ccc(NC(=O)N2Cc3ccccc3C2)cc1,> 1000,–,–
O=C(c1cc2ccccc2[nH]1)N1CCC(CCCCn2cc(-c3cccnc3)nn2)CC1,727,–,–
N#C/N=C(\NCCCCCCCC(=O)NCc1ccco1)Nc1ccncc1,> 1000,–,–
O=C(CCCCCCCNC(=S)Nc1cccnc1)n1cccc1,854,–,–
N#C/N=C(\NCCCCCC(=O)N(Cc1ccco1)c1ccc(Cl)cc1)Nc1ccncc1,6.3,0.5,–
O=C(CCCCCCCn1cc(-c2cccnc2)nn1)NCc1ccco1,> 1000,–,–
N#C/N=C(\NCCCCCCC(=O)N(Cc1ccco1)c1ccc([N+](=O)[O-])cc1)Nc1ccncc1,2.1,0.14,IC50 [3]: 2.13 nM; IC50 [4]: 1.39 nM; IC50 [5]: 0.32 nM
N#C/N=C(\NCCCCC1CCN(C(=O)c2cc3ccccc3[nH]2)CC1)Nc1cccnc1,113,–,–

Compound,IC50 [1] [nM],IC50 [6] [nM],other results
N#C/N=C(\NCCCCCCC(=O)N(CCCN1CCOCC1)Cc1ccco1)Nc1ccncc1,3,1.43,–
N#C/N=C(\NCCCCCCC(=O)N(CCCN1CCCC1)Cc1ccco1)Nc1ccncc1,4.5,2,–
N#C/N=C(\NCCCCCCC(=O)N(CCCN1CCOCC1)Cc1ccco1)N1Cc2ccccc2C1,> 1000,–,–
CCOC(=O)c1ccc(N/C(=N/C#N)NCCCCCCS(=O)(=O)N(Cc2ccco2)C2CCCC2)cc1,738,–,–
N#C/N=C(\NCCCCCCC(=O)N(Cc1ccco1)C1CCCC1)N1Cc2ccccc2C1,> 1000,–,–
O=C(c1cc2ccccc2[nH]1)N1CCC(CCCCNC(=S)Nc2cccnc2)CC1,> 1000,–,–
N#C/N=C(\NCCCCCCn1cc(CN(CCCN2CCOCC2)Cc2ccco2)nn1)Nc1ccncc1,25.8,2.36,–
N#C/N=C(\NCCCCCCS(=O)(=O)N(Cc1ccco1)C1CCCC1)Nc1ccc(N=[N+]=[N-])cc1,1000,–,–
O=C(CCCCCCCNC(=S)Nc1cccnc1)NCc1ccco1,> 1000,–,–
N#C/N=C(\NCCCCCCC(=O)N(Cc1ccco1)c1ccc(Cl)cc1)Nc1ccncc1,1.7,0.17,–
N#C/N=C(\NCCCCCC(=O)N(Cc1ccco1)C1CCCC1)Nc1ccncc1,3,0.2,IC50 [3]: 1.9 nM; IC50 [4]: 1.77 nM; IC50 [5]: 0.36 nM
O=C(NCCCCCCCCn1cc(-c2cccnc2)nn1)c1cc2ccccc2[nH]1,549,–,–
N#C/N=C(\NCCCCCCS(=O)(=O)N(CCCN1CCOCC1)Cc1ccco1)Nc1ccncc1,2.26,1.5,–
N#C/N=C(\NCCCCCCC(=O)N(Cc1ccco1)C1CCCC1)Nc1ccccc1,> 1000,–,–
N#C/N=C(\NCCCCCC(=O)N(CCCN1CCOCC1)Cc1ccco1)Nc1ccncc1,16.3,11.2,–
O=C(/C=C/c1cccnc1)NCCCCC1CCN(C(=O)c2ccccc2)CC1 [DAPORINAD],2.4,0.34,IC50 [3]: 0.76 nM; IC50 [7]: 0.73 nM; IC50 [4]: 0.37 nM; IC50 [8]: 2 nM; IC50 [5]: 0.24 nM
